Measurements published in patent US12077503B2, “Substituted cyclic amides and their use as herbicides” (FMC CORPORATION, priority 2015, dated 2024).

Key:
Assay type in all cases: in vivo
[1] = tested on: barnyardgrass (Echinochloa crus-galli); assay: Test G Pre-Emergence Protocol; settings: Echinochloa crus-galli, pre-emergence, 312 h, evaluated after 13 days
In short: (§1)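 One day after sowing, pots are treated with a spray of test compound formulated in acetone/water 50:50 plus 0.5% Tween 20, giving 15.625, 62.5 or 250 g/ha. Evaluation on a 0–100 damage scale follows 13 days of glasshouse growth.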

corn (Zea mays) [2] = assay: Test G Pre-Emergence Protocol; settings: Zea mays, pre-emergence, 312 h, evaluated after 13 days
In short: as §1

[3] = tested on: giant foxtail (Setaria faberi); assay: Test G Pre-Emergence Protocol; settings: Setaria faberi, pre-emergence, 312 h, evaluated after 13 days
In short: as §1

[4] = tested on: ivy-leaved morning glory (Ipomoea hederacea); assay: Test G Pre-Emergence Protocol; settings: Ipomoea, pre-emergence, 312 h, evaluated after 13 days
In short: as §1

[5] = tested on: redroot pigweed (Amaranthus retroflexus); assay: Test G Pre-Emergence Protocol; settings: Amaranthus retroflexus, pre-emergence, 312 h, evaluated after 13 days
In short: as §1

[6] = tested on: velvetleaf (Abutilon theophrasti); assay: Test G Pre-Emergence Protocol; settings: Abutilon theophrasti, pre-emergence, 312 h, evaluated after 13 days
In short: as §1

[7] = tested on: barnyardgrass (Echinochloa crus-galli); assay: Test G Post-Emergence Protocol; settings: Echinochloa crus-galli, post-emergence, 312 h, read-out: Barnyardgrass damage rating
In short: (§2)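 Sow in soil; grow 8 d (24/16 °C, 14 h light, 65% humidity); spray 15.625/62.5/250 g/ha in acetone:water 50:50 + 0.5% Tween 20; grow on, water twice daily; score damage 0–100 at 13 d.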

corn (Zea mays) [8] = assay: Test G Post-Emergence Protocol; settings: Zea mays, post-emergence, 312 h, read-out: Corn damage rating
In short: as §2

[9] = tested on: giant foxtail (Setaria faberi); assay: Test G Post-Emergence Protocol; settings: Setaria faberi, post-emergence, 312 h, read-out: Foxtail, Giant damage rating
In short: as §2

[10] = tested on: ivy-leaved morning glory (Ipomoea hederacea); assay: Test G Post-Emergence Protocol; settings: Ipomoea, post-emergence, 312 h, read-out: Morningglory, Ivy-leaved damage rating
In short: as §2

[11] = tested on: redroot pigweed (Amaranthus retroflexus); assay: Test G Post-Emergence Protocol; settings: Amaranthus retroflexus, post-emergence, 312 h, read-out: Pigweed, Redroot damage rating
In short: as §2

[12] = tested on: velvetleaf (Abutilon theophrasti); assay: Test G Post-Emergence Protocol; settings: Abutilon theophrasti, post-emergence, 312 h, read-out: Velvetleaf damage rating
In short: as §2

[13] = 15.625 g ai/ha, evaluated after 13 days (100=total damage to plant; 0=no damage to plant)
[14] = 62.5 g ai/ha, evaluated after 13 days, 100=total damage to plant, 0=no damage to plant
[15] = 250 g ai/ha, evaluated after 13 days, 100=total damage to plant, 0=no damage to plant

Structure (SMILES): COC(=O)c1cc([C@H]2CN(C)C(=O)[C@@H]2C(=O)Nc2cccc(F)c2F)ccc1C (racemic) [Compound 1683]
- pest or weed control at 15.625 g/ha ([1]; 15.625 g ai/ha, read-out: Barnyardgrass damage rating (100=total damage to plant; 0=no damage to plant)): 60%
- pest or weed control at 62.5 g/ha ([1]; 62.5 g ai/ha, 100=total damage to plant, 0=no damage to plant, read-out: Barnyardgrass damage rating): 70%
- pest or weed control at 250 g/ha ([1]; 250 g ai/ha, read-out: Barnyardgrass damage rating (100=total damage to plant; 0=no damage to plant)): 80%
- plant injury at 15.625 g/ha (corn (Zea mays) [2]; 15.625 g ai/ha, read-out: Corn damage rating (100=total damage to plant; 0=no damage to plant)): 30%
- plant injury at 62.5 g/ha (corn (Zea mays) [2]; 62.5 g ai/ha, 100=total damage to plant, 0=no damage to plant, read-out: Corn damage rating): 50%
- plant injury at 250 g/ha (corn (Zea mays) [2]; 250 g ai/ha, read-out: Corn damage rating (100=total damage to plant; 0=no damage to plant)): 80%
- pest or weed control at 15.625 g/ha ([3]; 15.625 g ai/ha, read-out: Foxtail, Giant damage rating (100=total damage to plant; 0=no damage to plant)): 70%
- pest or weed control at 62.5 g/ha ([3]; 62.5 g ai/ha, 100=total damage to plant, 0=no damage to plant, read-out: Foxtail, Giant damage rating): 80%
- pest or weed control at 250 g/ha ([3]; 250 g ai/ha, read-out: Foxtail, Giant damage rating (100=total damage to plant; 0=no damage to plant)): 90%
- pest or weed control at 15.625 g/ha ([4]; 15.625 g ai/ha, read-out: Morningglory, Ivy-leaved damage rating (100=total damage to plant; 0=no damage to plant)): 0%
- pest or weed control at 62.5 g/ha ([4]; 62.5 g ai/ha, 100=total damage to plant, 0=no damage to plant, read-out: Morningglory, Ivy-leaved damage rating): 10%
- pest or weed control at 250 g/ha ([4]; 250 g ai/ha, read-out: Morningglory, Ivy-leaved damage rating (100=total damage to plant; 0=no damage to plant)): 60%
- pest or weed control at 15.625 g/ha ([5]; 15.625 g ai/ha, read-out: Pigweed, Redroot damage rating (100=total damage to plant; 0=no damage to plant)): 20%
- pest or weed control at 62.5 g/ha ([5]; 62.5 g ai/ha, 100=total damage to plant, 0=no damage to plant, read-out: Pigweed, Redroot damage rating): 20%
- pest or weed control at 250 g/ha ([5]; 250 g ai/ha, read-out: Pigweed, Redroot damage rating (100=total damage to plant; 0=no damage to plant)): 20%
- pest or weed control at 15.625 g/ha ([6]; 15.625 g ai/ha, read-out: Velvetleaf damage rating (100=total damage to plant; 0=no damage to plant)): 0%
- pest or weed control at 62.5 g/ha ([6]; 62.5 g ai/ha, 100=total damage to plant, 0=no damage to plant, read-out: Velvetleaf damage rating): 10%
- pest or weed control at 250 g/ha ([6]; 250 g ai/ha, read-out: Velvetleaf damage rating (100=total damage to plant; 0=no damage to plant)): 30%
- pest or weed control at 15.625 g/ha [7, 13]: 70%
- pest or weed control at 62.5 g/ha [7, 14]: 70%
- pest or weed control at 250 g/ha [7, 15]: 80%
- plant injury at 15.625 g/ha (corn (Zea mays) [8]; [13]): 20%
- plant injury at 62.5 g/ha (corn (Zea mays) [8]; [14]): 40%
- plant injury at 250 g/ha (corn (Zea mays) [8]; [15]): 80%
- pest or weed control at 15.625 g/ha [9, 13]: 70%
- pest or weed control at 62.5 g/ha [9, 14]: 80%
- pest or weed control at 250 g/ha [9, 15]: 80%
- pest or weed control at 15.625 g/ha [10, 13]: 30%
- pest or weed control at 62.5 g/ha [10, 14]: 30%
- pest or weed control at 250 g/ha [10, 15]: 50%
- pest or weed control at 15.625 g/ha [11, 13]: 30%
- pest or weed control at 62.5 g/ha [11, 14]: 10%
- pest or weed control at 250 g/ha [11, 15]: 40%
- pest or weed control at 15.625 g/ha [12, 13]: 0%
- pest or weed control at 62.5 g/ha [12, 14]: 20%
- pest or weed control at 250 g/ha [12, 15]: 50%
